The values below come from patent US10227591B2, “Modulation of human cytomegalovirus replication by micro-RNA 132 (miR132), micro-RNA 145 (miR145) and micro-RNA 212 (miR212)” (priority 2009, dated 2019).

The test system of one series is MeCP2. In words: MeCP2 protein Western blot after transfection with miR132 or miR212 LNA. The class given is cell-based, Human. Particulars: HEL cells transfected with 500 pmol LNA; nuclear enriched extracts; versus scramble LNA. From the text: In order to assess the role of miR132 and miR212 in virus replication, miR132 and miR212 were inhibited using antisense locked nucleic acid (LNA) oligonucleotides targeting miR132 or miR212 Inhibition of miR132 and/or miR212 in this way counteracts the increase in miR132 or miR212 expression that occurs during HCMV infection. To test the efficacy of the LNAs, HEL cells were transfected with 500 pmol of scramble, miR132, or miR212 specific locked nucleic acid (Exiqon) to inhibit miRNA function. Nuclear enriched extracts were prepared, and protein levels were determined by Western blot.
A general note: A western blot detects proteins with antibodies after separation by electrophoresis.

Series [1] has as its system HCMV. As to the kind of experiment: HCMV virus release by plaque assay after antisense miR132 LNA transfection. Conditions: for viral replication (virus release, viral proteins IE2, pp65, gB55): summary statement in the description, transfection of cells. The class given is cell-based. The procedure:
(§1) To determine the role of miR132 on HCMV replication, HEL cells were transfected with antisense miR132 LNA, and were infected with HCMV. The amount of virus released from infected cells was quantitated by plaque assay, and viral protein accumulation was analyzed by Western blot of protein lysates from infected cells. […] Taken together with the previous data, this experiment confirms that miR132 is necessary for efficient HCMV replication, and that HCMV replication can be effectively attenuated by inhibition of miR132.

For series [2], the system named is HCMV proteins IE2, pp65, gB55. As to the kind of experiment: HCMV viral protein accumulation by Western blot after antisense miR132 LNA transfection. The class given is cell-based. Conditions: HEL cells transfected, infected with HCMV; versus control LNA. The procedure:
as §1

A further series concerns IRS-1. In words: IRS-1 protein Western blot after transfection with miR145 mimic. The class given is cell-based, Human. Particulars: HEL fibroblasts; 48, 72 and 96 hours post transfection; compared to control miRNA transfected cells. As for the experimental part:
This experiment was performed to determine whether a miR145 mimic targets Insulin Receptor Substrate-1 (IRS-1) mRNA, which is a target of miR145, in HEL fibroblasts. HEL fibroblasts were transfected with either a control miRNA (ct) or miR145 mimic (145) (Dharmacon). Cell pellets were collected at 24, 48, 72 and 96 hours post transfection and lysed. Western blot was performed using an anti IRS-1 antibody (Upstate Biothechnology). Actin is shown as a loading control. […] This downregulation is not observed in the cells transfected with a control miRNA, or the mock-transfected cells.

Series [3] relates to HCMV. As to the kind of experiment: HCMV viral titers in supernatants by plaque assay after miR145 mimic transfection. The class given is cell-based. As for the experimental part: This experiment was performed to determine whether altered regulation of miR145 following viral infection affects viral replication. HEL fibroblasts were transfected with either a control (ct) miRNA or a miR145 mimic (145) (Dharmacon). The cells were infected with HCMV (MOI=1) 24 hours after transfection. Supernatants were collected at 24, 48, 72, 96, 120 and 144 hpi and examined for viral titers by plaque assay. […] A 10-fold difference can be observed from 72 to 96 hpi. At 144 hpi, viral titers are similar in the control and miR145 mimic transfected cells. […] This is consistent with the hypothesis that downregulation of miR145 contributes to HCMV pathogenesis by enhancing its replication.

The test system of series [4] is HCMV proteins IE2, pp65, gB55, IE1. As to the kind of experiment: HCMV viral protein expression by western blot after miR145 mimic transfection. Particulars: HEL fibroblasts, HCMV MOI=1, 24-144 hpi; compared to control miRNA. The class given is cell-based. The procedure:
These experiments were performed to establish the role of miR145 on HCMV protein expression. HEL fibroblasts were transfected with either a control miRNA or miR145 mimic (Dharmacon). The cells were infected with HCMV (MOI=1) 24 hours after transfection. Cell pellets were collected at 24, 48, 72, 96, 120 and 144 hpi, lysed and examined for viral protein expression by western blot.

As for “miR132 LNA: miR132 specific antisense locked nucleic acid (Exiqon); exemplary sequence 5' CGACCATGGCTGTAGACTGTTA 3' (SEQ ID NO:13) (antisense CGACCATGGCTGTAGACTGTTA; LNA-modified antisense, pattern not given here)”, the MeCP2 protein levels result with MeCP2 is on record as “modest increase”. The “decrease in virus replication” value in the series on HCMV [1] (HEL cells transfected, then infected with HCMV, virus release and viral protein expression) is on record as 3 fold. Besides, in the series with HCMV [1], the “viral replication (virus release, viral proteins IE2, pp65, gB55)” value is “attenuates viral replication”. In series [2], the “expression of viral protein IE2” value is recorded as “reduced”, the “expression of viral protein gB55” value was “reduced” and the “expression of viral protein pp65” value is reported as “reduced”.

Take “miR145 mimic: miR145 mimic (Dharmacon) transfected into HEL fibroblasts; mimics mature miR145 (SEQ ID NO:2) (GUCCAGUUUUCCCAGGAAUCCCU; mimic duplex, passenger strand not given here; listed as Homo sapiens)”: in the series on IRS-1, the IRS-1 protein level result is “Downregulation”. Also, the “viral titers in the supernatants” value with HCMV [3] (HEL fibroblasts transfected 24 h before HCMV infection (MOI=1), compared to control miRNA) is recorded as “decreased viral titers”. Moreover, in the series on HCMV [3] (HEL fibroblasts, HCMV MOI=1, at 144 hpi), the “viral titers versus control” value is given as “similar”. In the series with HCMV [3] (HEL fibroblasts, HCMV MOI=1, from 72 to 96 hpi, versus control miRNA), the “difference in viral titers” value is given as 10 fold. Besides, the “reduction in viral titers” value with HCMV [3] (fibroblast cells transfected, subsequently infected with HCMV) is above 1 log. For the same substance, in series [4], the IE1 levels result is “Increased IE1 levels”, the “levels of the Early (E) protein pp65” value is “Decreased levels”, the “levels of the Immediate Early (IE) 2 protein” value is “Decreased levels” and the “levels of the Late (L) protein gB55” value is “Decreased levels”.

In the case of “miR212 LNA: miR212 specific antisense locked nucleic acid (Exiqon); exemplary sequence 5' GGCCGTGACTGGAGACTGTTA 3' (SEQ ID NO:14) (LNA-modified antisense, pattern not given here)”, the MeCP2 protein levels result with MeCP2 is “modest increase”. The “viral replication (virus release, viral proteins IE2, pp65, gB55)” value with HCMV [1] is recorded as “attenuates viral replication”.
